Our source for the RP-LC retention time values is the METLIN SMRT retention time set (Domingo-Almenara et al. 2019).

The series is described as follows: gradient 5% acetonitrile 3 min, to 50% in 2 min, to 85% in 15 min, held 3 min, 100 µL/min. Particulars: column: Zorbax Extend-C18 2.1 x 50 mm; eluents: water / acetonitrile, 0.1% formic acid. The method in brief:
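A Zorbax Extend-C18 column (2.1 × 50 mm, 1.8 μm) run at 100 μL/min with water and acetonitrile, both containing 0.1% formic acid, separated mixtures of ~100 pure standards. The HPLC was coupled to a quadrupole time-of-flight mass spectrometer operated in positive and negative ionization mode, with dead and dwell volumes of 40 μL and 900 μL. Each retention time was taken from a computationally picked adduct peak that was then manually inspected.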
As to `CC(=O)N1CCc2cc(N3CC(C(=O)Nc4ccc(F)cc4)CC3=O)ccc21` (centres undefined), the RP-LC retention time is 699 s.
In turn, `O=C(Cn1nc2c3cc(-c4ccc(F)cc4)nn3ccn2c1=O)Nc1ccc(Br)cc1` gave an RP-LC retention time of 923 s.
In turn, `CCCN(C(C)=O)c1nc(-c2ccc(Br)cc2)cs1` displayed an RP-LC retention time of 1240 s.
The figure for `Cc1cc(S(=O)(=O)Nc2ccc3c(c2)CCC(=O)N3CC(C)C)ccc1F` is 909 s; for `CCCN1C(=O)c2cc(S(=O)(=O)Nc3ccc(C)cc3)ccc2Oc2cccnc21` it is 1100 s; for `COc1ccccc1NC(=O)Nc1c(-c2ccc(F)cc2)nc2ccccn12` it is 692 s.
Molecule `Cn1cc(S(=O)(=O)N2CCC(C(=O)NC3CCCCC3)CC2)cc1C(=O)N1CCCC1` returned an RP-LC retention time of 736 s.
As for `CCc1nc2cc(-c3noc(Cc4ccc(OC)c(Cl)c4)n3)ccc2o1`, the RP-LC retention time came out at 1120 s.
`Cc1cc(OCC(=O)NCc2ccco2)nc(-c2ccc(Cl)cc2)n1` showed an RP-LC retention time of 1000 s.
The molecule `CCc1ccc(N2CC(c3noc(-c4ccccc4F)n3)CC2=O)cc1` (centres undefined) displayed an RP-LC retention time of 1100 s.
On to `CCOC(=O)C1CCN(S(=O)(=O)c2ccc3c(c2)-c2oncc2CO3)CC1`, for which the RP-LC retention time was found to be 908 s.
`CCC(=O)N1CCc2cc(C(=O)N(C)C)ccc21` registered an RP-LC retention time of 673 s.
For the molecule `Cc1nc(NS(=O)(=O)c2ccccc2)sc1C(=O)NCc1c(F)cccc1F`, the RP-LC retention time is 718 s.
As to `Cc1ccc(-c2nc(CN3C(=O)C(O)(c4ccccc4)c4ccccc43)c(C)o2)cc1` (centres undefined), the RP-LC retention time amounted to 1120 s.
`CCc1nc(-c2ccc(-c3noc(CNC(=O)c4ccccc4)n3)cc2)cs1`: the RP-LC retention time is 963 s.
The molecule `Cc1cccc(Nc2c(-c3ccc(N4CCOCC4)cc3)nc3cnccn23)c1C` registered an RP-LC retention time of 867 s.
For the molecule `Cc1nc(C(=O)OCc2cc(-c3cccs3)on2)cs1`, the RP-LC retention time is 785 s.
In turn, `COc1cccc(-n2c(=O)c(C(=O)Nc3cc(F)cc(F)c3)c(O)c3cccnc32)c1` came in with an RP-LC retention time of 1210 s.
`CCOC(=O)c1ccc(NC(=O)CC2COc3ccccc3NC2=O)cc1` (centres undefined): the RP-LC retention time was determined as 596 s.
The figure for `O=S(=O)(c1cccn2cnnc12)N(Cc1cccc(F)c1)c1ccc(F)c(F)c1` is 866 s; for `O=S(=O)(c1ccccc1)N1CCCCC1c1nc(-c2ccccc2)n[nH]1` (centres undefined) it is 851 s; for `CCCCN(C)C(=O)c1ccc2c(c1)N(CCC)C(=O)C1CCC(=O)N21` (centres undefined) it is 759 s.
`CCNc1nc(C)cc(N2CCN(S(=O)(=O)c3cc(C(C)(C)C)ccc3OC)CC2)n1` showed an RP-LC retention time of 803 s.
Consider `COc1ccc(-c2cc3nn(CC(=O)Nc4ccccc4)c(=O)n3c(C)n2)cc1`, for which the RP-LC retention time worked out at 661 s.
`CN(Cc1ccccc1)c1ccc(-c2noc(CN3CCSCC3)n2)cn1` returned an RP-LC retention time of 930 s.
The figure for `COc1ccc(NS(=O)(=O)c2cccc(-c3nc(-c4ccccc4)no3)c2)cc1` is 1100 s.
In the case of `Cc1ccc(-c2csc(NC(=O)c3ccc(C)c(C)c3)n2)cc1`, the RP-LC retention time was 1240 s.
For `CCC(C)Sc1nnc(-c2cn(C)nc2OC)n1CCOC` (centres undefined), the RP-LC retention time worked out at 634 s.
The molecule `Cc1cc(S(=O)(=O)N2CC(N(Cc3ccncc3)CC3CC3)C2)ccc1F` showed an RP-LC retention time of 709 s.
With `COC(=O)c1ccccc1NC(=O)NCCc1c(C)nn(C)c1C`, the RP-LC retention time was found to be 629 s.
Next, `Cc1nnc(N2CCCC(C(=O)NCCc3ccc(Cl)cc3)C2)c2nn(-c3ccccc3)c(C)c12` (centres undefined): 784 s; `Cc1ccc(-c2noc(-c3cccc(S(=O)(=O)Nc4ccccn4)c3)n2)cc1`: 935 s.
The figure for `C/C(=C\c1csc(C)n1)C1C[C@@H]2O[C@]2(C)CCC[C@H](C)[C@H](O)[C@@H](C)C(=O)C(C)(C)[C@@H](O)CC(=O)N1` (some centres undefined) is 668 s; for `Cc1c(C(=O)NCC2CC2)cnn1-c1ccc(-c2nc(C3CC3)no2)cn1` it is 810 s.
Next, `CN(CC(=O)N1CCN(c2ccc(Cl)cc2)CC1)S(=O)(=O)c1c[nH]c(C(=O)N2CCCC2)c1`: 837 s.
The molecule `CC(C)OC(=O)c1ncoc1-c1ccccc1C(=O)N1CCN(C2CCCCC2)CC1` came in with an RP-LC retention time of 638 s.
`COc1cc(OC)c(NC(=O)c2cc3c(=O)n(CC(C)C)ccc3n2C)cc1Cl`: the RP-LC retention time was 924 s.
The molecule `CCN1CCN(c2ccc(NC(=O)c3cccc(C)c3)cn2)C1=O` gave an RP-LC retention time of 742 s.
Turning to `COc1ccc(C(=O)n2nc(C)cc2C)cc1OC`, the RP-LC retention time was found to be 788 s.
In the case of `CC(C)(C)C1CCC2(CC1)CCN(CCCN1CCOCC1)CC2`, the RP-LC retention time came to 619 s.
The figure for `COc1ccccc1NC(=O)N1CCC2(CC1)NC(=O)c1cccc(Cl)c1N2` is 754 s; for `CN1CCC(OC2CCN(C(=O)c3ccc(Cl)s3)CC2)CC1` it is 609 s; for `Cc1nc(-c2csc(S(=O)(=O)NCc3ccc(F)cc3Cl)c2)sc1C` it is 1070 s.
Next, `CN(C)C[C@@H]1CN(c2ncccn2)C[C@H]1NC(=O)C1(C)CCOCC1`: 532 s; `CCOC(=O)c1cnc(Nc2nc(C)c3cc(OC)ccc3n2)nc1C`: 681 s.
Turning to `CC1CCCCN1CCCNC(=O)CCCN1C(=O)CCn2nc(-c3cccn3C)cc21` (centres undefined), the RP-LC retention time was 545 s.
Molecule `COc1ccc(-c2nc3cnccn3c2Nc2ccc(C(=O)O)cc2)cc1` had an RP-LC retention time of 662 s.
The molecule `Cc1ccc(-c2cn3cccnc3n2)cc1NC(=O)c1ccc(Br)cc1` returned an RP-LC retention time of 730 s.
The figure for `Cc1ccc(NC(=O)Cn2c(=O)cc(-c3nc(C(C)C)no3)c3ccccc32)c(Cl)c1` is 1110 s; for `Cc1cc2c(=O)n(CC(=O)NCc3ccccc3Cl)c3cccnc3n2n1` it is 729 s.
`Cc1ccc(C)c(OCC(=O)Nc2nc(-c3ccc(Br)cc3)cs2)c1C` showed an RP-LC retention time of 1430 s.
The molecule `COc1cccc(/C=N\NC(=O)C(C)SC(C)C(=O)N/N=C/c2cccc(OC)c2)c1` (centres undefined) returned an RP-LC retention time of 769 s.
The molecule `CN[C@@H](C)C(=O)N[C@H](C(=O)N1CCC[C@H]1c1nc(C(=O)c2ccc(F)cc2)cs1)C1CCCCC1` showed an RP-LC retention time of 787 s.
In turn, `Cc1cc(NC(=O)CSc2nc(-c3cccnc3)ccc2C#N)no1` returned an RP-LC retention time of 626 s.
The figure for `CN(C)C(=O)N1CCC(c2nc(CCOc3ccc(F)cc3)no2)C1` (centres undefined) is 767 s.
The molecule `COc1cc(C2=NN(C(C)=O)C(c3ccncc3)O2)cc(OC)c1OC(C)=O` (centres undefined) registered an RP-LC retention time of 714 s.
In the case of `Cc1cccc(-c2noc(Cn3ccn(Cc4ccc(Cl)cc4)c(=O)c3=O)n2)c1`, the RP-LC retention time was 960 s.
`COc1ccc(S(=O)(=O)N(C)C2CCc3nn(CC4CC4)c(=O)n3CC2)cc1Cl` (centres undefined) had an RP-LC retention time of 810 s.
Consider `Cc1cc(C)c(NC(=O)CN2C(=O)NC3(CCCCC3)C2=O)c(C)c1`, for which the RP-LC retention time came out at 777 s.
Next, `Cc1ccc(CNC(=O)c2c(C)oc3nc(C)nc(N4CCOCC4)c23)cc1`: 787 s; `CC(C)CN(CCCNC(=O)C1CCN(c2cnn(C)c(=O)c2)C1)CC(C)C` (centres undefined): 589 s.
With `CCOc1ccc(-c2cn3ccn(-c4cccc(F)c4)c(=O)c3n2)cc1`, the RP-LC retention time was 846 s.
Regarding `CC(=O)c1cccc(NC(=O)c2cc(Cl)ccc2Cl)c1`, the RP-LC retention time was determined as 848 s.
`CCCC(NC(=O)Cc1ccc(OC)c(Cl)c1)C(=O)Nc1nc2ccccc2[nH]1` (centres undefined) displayed an RP-LC retention time of 720 s.
`COc1cc(-c2nc3ncccn3c2Nc2ccc(C)cc2C)ccc1O` registered an RP-LC retention time of 682 s.
Next, `Cc1cc(C)c2nc(C)cc(C(=O)NCc3ccc(C)o3)c2c1`: 735 s; `CC(=O)c1ccc(N2CCN(C(=O)C3Oc4ccccc4NC3=O)CC2)cc1` (centres undefined): 723 s; `Cn1c(C(=O)N2CCN(c3ccccn3)CC2)c(N2CCCC2=O)c2cc(F)ccc21`: 635 s.
On to `CN(C)C[C@@H]1CN(c2ccncn2)C[C@H]1NC(=O)c1ccc2ccccc2n1`, for which the RP-LC retention time is 595 s.
The figure for `O=C(CSc1ncccn1)Nc1nc(-c2ccccc2)c(-c2ccccc2)o1` is 905 s; for `O=C(Cn1cccc(-c2nc(-c3ccccc3)no2)c1=O)Nc1ccc(F)cc1F` it is 864 s.
Consider `COc1ccc(N2C(=O)C3N=NN(Cc4nc(-c5ccccc5C)no4)C3C2=O)cc1` (centres undefined), for which the RP-LC retention time came out at 976 s.
The figure for `CCn1ccc2sc(C)c(C(=O)NCc3cccc(Br)c3)c2c1=O` is 918 s; for `Cc1ccc(-c2nc3cnccn3c2NCCC(=O)NCC2CC2)cc1` it is 636 s; for `CC(=C/c1ccccc1)/C=C1/NC(=S)NC1=O` it is 880 s.
The molecule `Cn1c(CNC(=O)CN2CCN(Cc3ccc(F)cc3)C2=O)nc2ccccc21` had an RP-LC retention time of 628 s.
`Cc1nnc(-c2ccc3ccn(CC(=O)N4CCN(c5ccccc5)CC4)c3c2)o1` showed an RP-LC retention time of 801 s.
In the case of `COCc1cn(C2CN(C(=O)c3cc(C)nn3C)C2)nn1`, the RP-LC retention time is 581 s.
Consider `CC(C)n1c(=O)oc2cc(-c3noc(-c4ccccc4F)n3)ccc21`, for which the RP-LC retention time turned out to be 1160 s.
